In US20060217305A1, “Induction of tumor cell senescence by retinoid receptor agonists and antagonists” (Ordway Research Institute, Inc., priority 2005, published 2006):

How the values were obtained:
Format in all cases: cell-based, human
[1] = system: retinoid-inducible genes EPLIN, UBD, IGFBP3, TGFB1 and TRIM31 in MCF-7 cells (subline MCF-7 3′SS6); assay: real-time RT-PCR (QPCR) of retinoid-inducible gene expression, 2 days treatment; settings: for Fold induction EPLIN / Fold induction IGFBP3 / Fold induction TGFBI / Fold induction TRIM31 / Fold induction UBD: 2 days, MCF-7
Excerpt: The following compounds were obtained from Ligand Pharmaceuticals (San Diego, Calif.). LGD1550 is a pan-RAR agonist. LGD1268 is a pan-RXR agonist. LG100815 is a pan-RAR antagonist. LG101208 is a pan-RXR antagonist. The LG100815 compound is a specific RAR antagonist that binds to RAR, but fails to activate its Retinoic Acid Responsive Element (RARE)-dependent transcription transactivation function (see Lee et al, Mol. Cell Biol. 19: 1973-1980 (1999)). Also used was all-trans retinoic acid (RA), the most commonly used RAR agonist. To determine how these compounds affect the expression of retinoid-inducible growth inhibitory genes EPLIN, UBD, IGFBP3 and TGFB1, as well as TRIM31 gene that contains a putative RARE element in its promoter, MCF-7 cells (subline MCF-7 3′SS6) were treated with individual compounds or their combinations for 2 days, and RNA was extracted by standard procedures. In the initial assays, gene expression was analyzed by semi-quantitative reverse transcription-PCR (RT-PCR), as described in Dokmanovic et al., Cancer Biology & Therapy 1:24-27 (2002). In subsequent assays, the initial results were confirmed, expanded and quantitated by real-time RT-PCR (QPCR), using Applied BioSystems 7900HT real-time PCR instrument. β-actin was used as a normalization standard.
cDNA was prepared by reverse transcription with random primer using 4 μg total RNA. 5 μl SYBR Green PCR Master Mix (Applied Biosystems) was mixed with […] cDNA and 0.8 pmol of gene-specific primers and brought up to 10 μl with ultra pure H2O in 384-well optical plates. For amplification, reaction mixtures were heated for 2 min at 50° C. and 10 min at 95° C., followed by 40 cycles of two-step PCR consisting of 15 sec at 95° C. and 1 min at 60° C., to construct dissociation curves and verify that single PCR products were obtained. PCR products were also analyzed by gel electrophoresis to confirm that a single product of the expected size was amplified. […] The comparative CT method for relative quantitation of gene expression described by Applied Biosystems was used to determine expression levels for target genes. Experiments were carried out in triplicate for each data point. Sequence Detection Systems software version 2.1 (Applied Biosystems) and Microsoft Excel were used for data analysis.

[2] = system: DR5 RARE-containing promoter in MCF-7 cells; assay: DR5-luciferase transient transfection assay (RARE-dependent transcription); settings: 100 nM, 24 hrs
Protocol: The assays were carried out in triplicate. RA is all-trans retinoic acid. LGD1550 is a pan-RAR agonist. LG100815 is a pan-RAR antagonist.
To confirm the ability of LG100815 to antagonize RARE-dependent induction of transcription analysis of firefly luciferase expression from a RARE-containing artificial promoter DR5 (Stratagene, catalog number 240119) was performed. Cells were plated to the density of 3×10^5 in P60 24 hrs before transient transfection. DR5 reporter plasmid (4 μg) was mixed with the SV40-driven-Renilla luciferase control plasmid (0.04 μg) and transfected using Lipofectamine Plus (Life Technologies/Invitrogen, Carlsbad, Calif.) as described by the manufacturer. 3 hrs after transfection, cells were rinsed three times with PBS, trypsinized and replated in a 12-well plate to the density of 5×10^4 cells per well. Retinoid agonists and antagonists were added 48 hrs later, and the luciferase assay was performed after another 24 hrs.

MCF-7 cells [3] = assay: MCF-7 cell growth, cell number after 7 days; settings: 100 nM RA, LGD1550, LGD1268, 10 μM LG100815, LG101208
Protocol: The bars represent cell number after 7 days of culture with the addition of DMSO (control), 100 nM RA, 100 nM RAR agonist LGD1550, 100 nM RXR agonist LGD1268, 10 μM RAR antagonist LG100815, and 10 μM RXR antagonist LG101208. Experiments were done in triplicate, and the results are expressed relative to the average of the control.
(§1) To test this, we have analyzed the effects of different compounds on the growth of MCF-7 cells, as measured by the cell number after 7 days exposure to the compounds (FIG. 2) and on the fraction of cells expressing the senescence-associated β-galactosidase activity (SA-β-gal), a marker of senescence, after 7-day treatment with the compounds (FIG. 3).

MCF-7 cells [4] = assay: senescence-associated β-galactosidase (SA-β-gal) positive cells; settings: 7-day treatment (FIG. 3 legend: 8 days); concentrations as in FIG. 2
Excerpt: The bars represent percentages of SA-β-gal+ cells after 8 days of treatment with the indicated compounds (in triplicate). The compounds were used at the same concentrations as in FIG. 2.
as §1

## CC(/C=C/C=C(\C)c1cc(C(C)(C)C)cc(C(C)(C)C)c1)=C\C(=O)O [LGD1550]
[1]; 100 nM
  ratio of the fold-induction of TGFB1 relative to TRIM31: 0.12
  Fold induction EPLIN: 4.2 ± 0.8 fold
  Fold induction IGFBP3: 4.2 ± 2.0 fold
  Fold induction TGFBI: 5.1 ± 0.6 fold
  Fold induction TRIM31: 42.7 ± 1.3 fold
  Fold induction UBD: 9.5 ± 0.2 fold
[1]; 1 μM
  ratio of the fold-induction of TGFB1 relative to TRIM31: 0.12
  Fold induction EPLIN: 3.2 ± 0.3 fold
  Fold induction IGFBP3: 3.7 ± 0.7 fold
  Fold induction TGFBI: 3.5 ± 0.4 fold
  Fold induction TRIM31: 30.3 ± 0.7 fold
  Fold induction UBD: 7.7 ± 1.1 fold
[1]; 10 μM
  ratio of the fold-induction of TGFB1 relative to TRIM31: 0.12
  Fold induction EPLIN: 4.9 ± 2.5 fold
  Fold induction IGFBP3: 2.8 ± 1.6 fold
  Fold induction TGFBI: 5.6 ± 0.1 fold
  Fold induction TRIM31: 45.0 ± 1.4 fold
  Fold induction UBD: 7.3 ± 1.1 fold
[1]; summary of Table 2, MCF-7
  effect on expression of the five genes (IGFBP3, EPLIN, UBD, TGFB1, TRIM31): induced all five genes to approximately the same extent as RA
[2]
  induction of luciferase expression from DR5 RARE-containing promoter: approximately 50 fold
MCF-7 cells [3]
  effect on MCF-7 cell growth (cell number): inhibited the cell growth
MCF-7 cells [4]
  induction of senescent phenotype (SA-β-gal+ cells): induced SA-β-gal to an extent similar to that of RA
